SMILES strings stand for the structures. “Also recorded” adds a separate entry of the source.

The test system of one experiment is H3K9la in HEK 293T cells. Briefly: H3K9la level after sodium lactate stimulation. Format: cell-based, human. The note with it: 20 mM sodium lactate, 24 h, Figure S4B. As for the experimental part: Histone was isolated from HEK 293T cells by acid extraction. In short, HEK 293T cells were treated with 20 mM sodium lactate for 24 h and harvested by centrifugation. The harvested HEK 293T cells were resuspended with lysis buffers (10 mM Tris–HCl pH 8.0, 1 mM KCl, 1.5 mM MgCl2, 1 mM DTT, 2 mM PMSF, and Roche Complete EDTA free protease inhibitor) and incubated at 4 °C for 1 h. The intact nuclei were centrifuged at 2000g at 4 °C for 10 min to form pellets. To extract histones, 0.4 M H2SO4 was added to the suspension nucleus and then rotated overnight at 4 °C. After removal of nuclear debris by centrifugation at 10,000g at 4 °C for 10 min, histone was precipitated by adding 100% trichloroacetic acid (trichloroacetic acid final concentration 33%). The precipitated histones were incubated at 4 °C for 10 min and washed with acetone twice. The dried protein particles were dissolved with ddH2O. Subsequently, 4 ∼ 6 μg histone was incubated with 10 μM SIRT3 in 100 μl PBS supplemented by 5 mM NAD^+ at 37 °C for 5 h. The lactylation levels at histone were detected by Western blot.

The next experiment deals with SIRT3. The arrangement: method as in PMID 26120888. As to conditions: cited from earlier work.
In experiment [1] the test system is KYSE30 cells. As to the kind of experiment: Cell migration (wound healing assay). Format: cell-based, human. The note with it: n = 8, supplemental Fig. S2H. On the procedure: The wound healing assay involved seeding cells in 6-well plates. After the cells (KYSE30 cells with SIRT3 KO and overexpression) were fused, they were scraped off with the tip of the pipette, and the floating cells were washed away with PBS. Immediately afterward, the wounds were photographed. After culture in serum-free medium for 24 h, the wounds were photographed again.

Experiment [2] relates to KYSE30 cells. As to the kind of experiment: Cell proliferation / viability (CCK-8). The note with it: ESCC cell (KYSE30), CCK-8, n = 8; supplemental Fig. S2G. The format is cell-based, human.
A further experiment has as its system ESCC cell. As to the kind of experiment: Colony formation assay. The format is cell-based, human. On the procedure:
The cells (KYSE30 cells with SIRT3 KO and overexpression) to be observed were counted, and 1000 cells/well were inoculated into the 12-well plate culture plate, and the medium was changed every 3 days. About a week after cell culture, the cells were washed twice with PBS and fixed with 1 ml 4% paraformaldehyde for 10 min. The cells were stained with crystal violet solution for 5 to 10 min, and the excess crystal violet solution was washed away with PBS. The formation of cell clones was photographed. The results were analyzed by ImageJ software (v.ImageJ2).
The cells were counted and 1000 cells were inoculated in 6-well plate plates, and the medium was changed every 3 days. After about 1 week of cell culture, the cells were washed twice with PBS and fixed with 1 ml 4% paraformaldehyde for 30 min. Dye crystal violet for 5 to 10 min and then the cells were washed with PBS. The formation of cell clones was photographed and analyzed using ImageJ software.

Another experiment relates to H3K9la. Briefly: H3K9la level in cells with SIRT3 inhibitor (Western blot). Format: cell-based, human. Background: Immunoblotting shows a protein as a band on a membrane.

As for `CC(O)C(=O)[O-].[Na+]` (stereo not shown) [sodium lactate], the H3K9la level result with H3K9la in HEK 293T cells was “increased”.

With `c1cncc(-c2cn[nH]n2)c1` [3-TYP], in the experiment with SIRT3, the SIRT3 inhibition selectivity result is “selective SIRT3 inhibitor”. Also, the cell migration ability entry in the experiment on KYSE30 cells [1] is on record as “significantly increased”. Besides, the cell proliferation entry in the experiment with KYSE30 cells [2] is on record as “significantly increased; also recorded: Increasing efficiencies of proliferation”. In the experiment with ESCC cell, the colony formation entry was “Increasing efficiencies of proliferation and colony formation”. Also, in the experiment with H3K9la (Figure S2F), the “delactylation of SIRT3 with inhibitor” value is listed as “decreasing delactylation”. In the experiment on H3K9la (compared with dimethyl sulfoxide, supplemental Fig. S2F), the “level of H3K9la in cells” value was “increased H3K9la levels; also recorded: significantly increased”.
